# Experiments:
# Leishmania mexicana [1] = assay: Inhibition of Leishmania mexicana cysteine protease CBP2.8deltaCTE at 20 ug/mL
# Leishmania mexicana [2] = assay: Inhibition of Leishmania mexicana cysteine protease CBP2.8deltaCTE at 2 ug/mL
inhibition (Leishmania mexicana [1]) [%],inhibition (Leishmania mexicana [2]) [%],Compound
15.1,0,CC(C)(C)OC(=O)N[C@@H](Cc1ccccc1)/C(SCCc1ccccc1)=C(/F)S(=O)(=O)c1ccccc1
97,71.3,O=C(N[C@H](/C=C/S(=O)(=O)c1ccccc1)Cc1ccccc1)[C@H](Cc1ccccc1)NC(=O)N1CCOCC1
38.7,1.1,CC(C)(C)OC(=O)N[C@@H](Cc1ccccc1)/C(SCCc1ccccc1)=C(\F)S(=O)(=O)c1ccccc1

# Source: ChEMBL document CHEMBL1140565, “Dipeptidyl alpha-fluorovinyl Michael acceptors: synthesis and activity against cysteine proteases” (Bioorg Med Chem Lett, 2007)
